Results: ChEMBL document CHEMBL1201862, “PubChem BioAssay data set” (2004)
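How tested: cells in 96-well plates exposed to compound for 48 hours at five concentrations. GI50 is the concentration that inhibits growth by half.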 The source made the active and inactive calls. No stated cut-off is given here; in the data, active = GI50 up to about 1.1 µM and inactive = higher.

Key:
Experiment in all cases: NCI tumour cell line growth inhibition, 48 h
786-0 = test system: 786-0
A498 = test system: A498
A549 = test system: A549
ACHN = test system: ACHN
CCRF-CEM = test system: CCRF-CEM
COLO 205 = test system: COLO 205
DLD-1 = test system: DLD-1
DMS-114 = test system: DMS-114
DMS-273 = test system: DMS-273
EKVX = test system: EKVX
HCC 2998 = test system: HCC 2998
HCT-116 = test system: HCT-116
HCT-15 = test system: HCT-15
HL-60 = test system: HL-60
IGROV-1 = test system: IGROV-1
K562 = test system: K562
KM-20L2 = test system: KM-20L2
KM12 = test system: KM12
LOX IMVI = test system: LOX IMVI
LXFL 529 = test system: LXFL 529
M19-MEL = test system: M19-MEL
MOLT-4 = test system: MOLT-4
Malme-3M = test system: Malme-3M
NCI-H23 = test system: NCI-H23
NCI-H460 = test system: NCI-H460
NCI-H522 = test system: NCI-H522
OVCAR-5 = test system: OVCAR-5
OVCAR-8 = test system: OVCAR-8
RPMI-8226 = test system: RPMI-8226
RXF 393 = test system: RXF 393
SF-268 = test system: SF-268
SF-295 = test system: SF-295
SF-539 = test system: SF-539
SK-MEL-28 = test system: SK-MEL-28
SK-MEL-2 = test system: SK-MEL-2
SK-MEL-5 = test system: SK-MEL-5
SK-OV-3 = test system: SK-OV-3
SN12C = test system: SN12C
SNB-19 = test system: SNB-19
SNB-78 = test system: SNB-78
SR = test system: SR
SW-620 = test system: SW-620
TK-10 = test system: TK-10
U-251 = test system: U-251
UACC-257 = test system: UACC-257
UACC-62 = test system: UACC-62
UO-31 = test system: UO-31
CAKI-1 = test system: CAKI-1
HOP-18 = test system: HOP-18
HOP-62 = test system: HOP-62
HOP-92 = test system: HOP-92
HT-29 = test system: HT-29
M14 = test system: M14
OVCAR-4 = test system: OVCAR-4
XF498 = test system: XF498
OVCAR-3 = test system: OVCAR-3

SMILES: CCC1OCCN1C(C)C (configuration not stated)
- GI50 (786-0): > 100 µM (inactive)
- GI50 (A498): > 100 µM (inactive)
- GI50 (A549): > 100 µM (inactive)
- GI50 (ACHN): > 100 µM (inactive)
- GI50 (CCRF-CEM): > 100 µM (inactive)
- GI50 (COLO 205): > 100 µM (inactive)
- GI50 (DLD-1): 92 µM (inactive)
- GI50 (DMS-114): 85.9 µM (inactive)
- GI50 (DMS-273): 69.2 µM (inactive)
- GI50 (EKVX): 26.2 µM (inactive)
- GI50 (HCC 2998): > 100 µM (inactive)
- GI50 (HCT-116): 89.9 µM (inactive)
- GI50 (HCT-15): 81.1 µM
- GI50 (HL-60): > 100 µM (inactive)
- GI50 (IGROV-1): > 100 µM (inactive)
- GI50 (K562): > 100 µM (inactive)
- GI50 (KM-20L2): > 100 µM (inactive)
- GI50 (KM12): > 100 µM (inactive)
- GI50 (LOX IMVI): > 100 µM (inactive)
- GI50 (LXFL 529): > 100 µM (inactive)
- GI50 (M19-MEL): 71.4 µM (inactive)
- GI50 (MOLT-4): > 100 µM (inactive)
- GI50 (Malme-3M): 65.2 µM (inactive)
- GI50 (NCI-H23): 32.9 µM (inactive)
- GI50 (NCI-H460): 63.1 µM (inactive)
- GI50 (NCI-H522): 85.5 µM (inactive)
- GI50 (OVCAR-5): > 100 µM (inactive)
- GI50 (OVCAR-8): > 100 µM (inactive)
- GI50 (RPMI-8226): 60 µM (inactive)
- GI50 (RXF 393): > 100 µM (inactive)
- GI50 (SF-268): > 100 µM (inactive)
- GI50 (SF-295): > 100 µM (inactive)
- GI50 (SF-539): > 100 µM (inactive)
- GI50 (SK-MEL-28): 32.8 µM (inactive)
- GI50 (SK-MEL-2): > 100 µM (inactive)
- GI50 (SK-MEL-5): 70.8 µM (inactive)
- GI50 (SK-OV-3): > 100 µM (inactive)
- GI50 (SN12C): > 100 µM (inactive)
- GI50 (SNB-19): > 100 µM (inactive)
- GI50 (SNB-78): > 100 µM (inactive)
- GI50 (SR): > 100 µM (inactive)
- GI50 (SW-620): > 100 µM (inactive)
- GI50 (TK-10): 42 µM (inactive)
- GI50 (U-251): > 100 µM (inactive)
- GI50 (UACC-257): 97.5 µM (inactive)
- GI50 (UACC-62): 59 µM (inactive)
- GI50 (UO-31): 96.6 µM (inactive)

SMILES: CCCCSC1CCSc2c1ccc1ccccc21 (configuration not stated)
- GI50 (786-0): > 100 µM (inactive)
- GI50 (A549): 77.8 µM (inactive)
- GI50 (CAKI-1): > 100 µM (inactive)
- GI50 (COLO 205): > 100 µM (inactive)
- GI50 (DLD-1): 78.9 µM (inactive)
- GI50 (DMS-114): > 100 µM (inactive)
- GI50 (HCC 2998): 65.9 µM (inactive)
- GI50 (HCT-116): 53 µM (inactive)
- GI50 (HCT-15): 6.32 µM
- GI50 (HL-60): 93.1 µM (inactive)
- GI50 (HOP-18): > 100 µM (inactive)
- GI50 (HOP-62): > 100 µM (inactive)
- GI50 (HOP-92): 46.8 µM (inactive)
- GI50 (HT-29): 71.6 µM (inactive)
- GI50 (IGROV-1): > 100 µM (inactive)
- GI50 (K562): 44.9 µM (inactive)
- GI50 (KM-20L2): 53.8 µM (inactive)
- GI50 (KM12): > 100 µM (inactive)
- GI50 (M14): 74.1 µM (inactive)
- GI50 (M19-MEL): > 100 µM (inactive)
- GI50 (MOLT-4): 34.3 µM (inactive)
- GI50 (Malme-3M): 10.2 µM (inactive)
- GI50 (NCI-H23): > 100 µM (inactive)
- GI50 (OVCAR-4): > 100 µM (inactive)
- GI50 (OVCAR-5): 42 µM (inactive)
- GI50 (OVCAR-8): > 100 µM (inactive)
- GI50 (RPMI-8226): > 100 µM (inactive)
- GI50 (RXF 393): 52.8 µM (inactive)
- GI50 (SF-295): > 100 µM (inactive)
- GI50 (SF-539): > 100 µM (inactive)
- GI50 (SK-MEL-28): > 100 µM (inactive)
- GI50 (SK-MEL-2): > 100 µM (inactive)
- GI50 (SK-MEL-5): > 100 µM (inactive)
- GI50 (SK-OV-3): > 100 µM (inactive)
- GI50 (SNB-19): > 100 µM (inactive)
- GI50 (SNB-78): > 100 µM (inactive)
- GI50 (SR): 72.3 µM (inactive)
- GI50 (TK-10): > 100 µM (inactive)
- GI50 (U-251): > 100 µM (inactive)
- GI50 (UACC-62): > 100 µM (inactive)
- GI50 (UO-31): > 100 µM (inactive)
- GI50 (XF498): 0.119 µM (active)

SMILES: COc1nc(C(=O)O)c(Cl)c(OC)c1Cl
- GI50 (786-0): > 100 µM (inactive)
- GI50 (A498): > 100 µM (inactive)
- GI50 (A549): > 100 µM (inactive)
- GI50 (ACHN): > 100 µM (inactive)
- GI50 (CAKI-1): > 100 µM (inactive)
- GI50 (CCRF-CEM): > 100 µM (inactive)
- GI50 (COLO 205): > 100 µM (inactive)
- GI50 (DLD-1): > 100 µM (inactive)
- GI50 (DMS-114): > 100 µM (inactive)
- GI50 (EKVX): > 100 µM (inactive)
- GI50 (HCC 2998): > 100 µM (inactive)
- GI50 (HCT-116): > 100 µM (inactive)
- GI50 (HL-60): > 100 µM (inactive)
- GI50 (HOP-62): > 100 µM (inactive)
- GI50 (HOP-92): > 100 µM (inactive)
- GI50 (HT-29): > 100 µM (inactive)
- GI50 (IGROV-1): > 100 µM (inactive)
- GI50 (K562): > 10 µM (inactive)
- GI50 (KM-20L2): > 100 µM (inactive)
- GI50 (KM12): > 100 µM (inactive)
- GI50 (M14): > 100 µM (inactive)
- GI50 (M19-MEL): > 100 µM (inactive)
- GI50 (MOLT-4): > 100 µM (inactive)
- GI50 (Malme-3M): > 100 µM (inactive)
- GI50 (NCI-H23): > 100 µM (inactive)
- GI50 (NCI-H460): > 100 µM (inactive)
- GI50 (NCI-H522): > 100 µM (inactive)
- GI50 (OVCAR-3): > 100 µM (inactive)
- GI50 (OVCAR-4): > 100 µM (inactive)
- GI50 (OVCAR-5): > 100 µM (inactive)
- GI50 (OVCAR-8): > 100 µM (inactive)
- GI50 (RPMI-8226): > 100 µM (inactive)
- GI50 (RXF 393): > 100 µM (inactive)
- GI50 (SF-268): > 100 µM (inactive)
- GI50 (SF-295): > 100 µM (inactive)
- GI50 (SF-539): > 100 µM (inactive)
- GI50 (SK-MEL-28): > 100 µM (inactive)
- GI50 (SK-MEL-2): > 100 µM (inactive)
- GI50 (SK-MEL-5): > 100 µM (inactive)
- GI50 (SK-OV-3): > 100 µM (inactive)
- GI50 (SN12C): > 100 µM (inactive)
- GI50 (SNB-19): > 100 µM (inactive)
- GI50 (SR): > 100 µM (inactive)
- GI50 (SW-620): > 100 µM (inactive)
- GI50 (TK-10): > 100 µM (inactive)
- GI50 (UACC-257): > 100 µM (inactive)
- GI50 (UACC-62): > 100 µM (inactive)
- GI50 (UO-31): > 100 µM (inactive)
